Results reported in publication PMC5462828 (Scientific Reports, 2017).

Experiments:
[1] = tested on: ML290-mediated cAMP accumulation; test: Effect of signalling pathway inhibitors on ML290-mediated cAMP accumulation in human primary vascular cells; type: cell-based
Experimental: cAMP and cGMP accumulation was determined as previously described, [16]. Briefly, HEK293 cells were plated in 96-well plates (5 × 10^4 cells/well) and human primary cells were plated into 24-well plates (1 × 10^5 cells/well) and grown overnight to achieve a confluent monolayer. Prior to stimulation, HEK cells were serum-starved in DMEM containing 0.5% FBS v/v and primary cells were serum-starved in M199 medium for 4–6 hours. […] Levels of cAMP and cGMP were detected according to the manufacturer’s instructions (Perkin-Elmer, Australia).

[2] = tested on: p-Smad3; test: Smad3 phosphorylation assay in human cardiac fibroblasts; type: cell-based; details: 72 hours
Experimental: Cells were serum-starved in M199 medium for 24 hours prior sample collection. Cells were used between passages 1–4, while all experiments were performed four separate times in duplicate. Levels of p-Smad2 and p-Smad3 were detected using Sure-fire kits according to the manufacturer’s instructions (Perkin-Elmer, Australia).

[3] = tested on: pig RXFP1; parameters: method as in PMID 26866459; details: cited from earlier work
[4] = target: T1, RXFP1 (Homo sapiens, UniProt Q9HBX9); test: 125I-H2 relaxin radioligand binding in HEK-RXFP1 cells; parameters: expressed in transfected cells; host or cells: HEK293T / HEK293 cells stably expressing RXFP1 (HEK-RXFP1)
T1 sequence (Q9HBX9 1-757): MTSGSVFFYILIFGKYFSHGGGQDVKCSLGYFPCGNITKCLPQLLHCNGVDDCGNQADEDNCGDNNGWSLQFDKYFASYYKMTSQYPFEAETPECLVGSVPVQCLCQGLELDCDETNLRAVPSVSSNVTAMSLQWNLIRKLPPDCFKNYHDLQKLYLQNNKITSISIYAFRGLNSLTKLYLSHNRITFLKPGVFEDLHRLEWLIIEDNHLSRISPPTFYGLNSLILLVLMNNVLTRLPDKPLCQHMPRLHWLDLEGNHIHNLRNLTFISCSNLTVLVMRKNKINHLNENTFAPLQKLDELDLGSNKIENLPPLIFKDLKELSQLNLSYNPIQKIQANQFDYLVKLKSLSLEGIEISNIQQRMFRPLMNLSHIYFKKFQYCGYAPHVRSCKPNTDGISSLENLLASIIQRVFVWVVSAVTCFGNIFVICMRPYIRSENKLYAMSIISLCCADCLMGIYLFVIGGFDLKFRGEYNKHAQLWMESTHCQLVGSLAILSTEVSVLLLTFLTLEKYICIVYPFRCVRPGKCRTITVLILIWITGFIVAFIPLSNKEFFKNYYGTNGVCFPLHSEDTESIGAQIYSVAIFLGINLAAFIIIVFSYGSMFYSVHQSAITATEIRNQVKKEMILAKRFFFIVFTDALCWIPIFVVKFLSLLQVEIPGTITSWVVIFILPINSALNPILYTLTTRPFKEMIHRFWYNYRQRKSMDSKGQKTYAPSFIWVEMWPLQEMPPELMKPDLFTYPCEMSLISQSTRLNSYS
Experimental: Competition radioligand binding studies were performed in HEK-RXFP1 cells as described previously. […] After 90 min incubation at room temperature, the reaction was terminated with the removal of medium and washing with cold PBS. Cells were digested with 0.1 M NaOH and radioactivity counted on the γ-counter.

SMILES: CC(C)Oc1ccccc1C(=O)Nc1ccccc1C(=O)Nc1cccc(S(=O)(=O)C(F)(F)F)c1 [ML290, 2-Isopropoxy-N-(2-(3-(trifluoromethylsulfonyl)phenylcarbamoyl)phenyl) benzamide]
- ML290-mediated cAMP accumulation, ML290 alone ([1]; HCAECs, ML290 10 μM, 30 min): 22.5 ± 5.5 % response to 50 μM forskolin
- ML290-mediated cAMP accumulation, ML290 alone ([1]; HUASMCs, control of NF449 and mSIRK experiments): 18.8 ± 4.3 % response to 50 μM forskolin
- ML290-mediated cAMP accumulation, ML290 alone ([1]; HUASMCs, control of gallein and Wortmannin experiments): 16.7 ± 3.4 % response to 50 μM forskolin
- ML290-mediated cAMP accumulation, ML290 alone ([1]; HUVECs, ML290 10 μM, 30 min): 16.4 ± 2.5 % response to 50 μM forskolin
- ML290-mediated cAMP accumulation, ML290 alone ([1]; HUVSMCs, control of NF449 and mSIRK experiments): 18.8 ± 8.0 % response to 50 μM forskolin
- ML290-mediated cAMP accumulation, ML290 alone ([1]; HUVSMCs, control of gallein and Wortmannin experiments): 12.6 ± 2.4 % response to 50 μM forskolin
- effect on p-Smad3 levels ([2]; HCFs not treated with TGF-β1, H2 relaxin 0.1 μM, ML290 1 μM): neither H2 relaxin (0.1 μM) nor ML290 (1 μM) significantly affected
- p-Smad3 in TGF-β1-stimulated cells ([2]; HCFs, TGF-β1 2 ng/ml + H2 relaxin 0.1 μM or ML290 1 μM): 1.15 ± 0.05 fold/basal
- agonist action at pig RXFP1 [3]: activates
- 125I-H2 relaxin specific binding to RXFP1 in presence of ML290 ([4]; 125I-H2 relaxin 100pM, increased from 102.7 ± […]): 135.2 ± 6.5%
- effect on the affinity of H2 relaxin ([4]; ML290 1 μM): no significant effect
